The values below come from patent US6677316B2, “Adenosine derivatives and methods of administration” (SmithKline Beecham Corporation, priority 1998, dated 2004).

For assay [1], the target named is T1, human adenosine A1 receptor (Homo sapiens, UniProt P30542).
T1 construct: expressed in transfected cells; host or cells: Chinese hamster ovary (CHO) cells with CRE/SPAP/HYG reporter elements
T1 sequence (P30542 1-326): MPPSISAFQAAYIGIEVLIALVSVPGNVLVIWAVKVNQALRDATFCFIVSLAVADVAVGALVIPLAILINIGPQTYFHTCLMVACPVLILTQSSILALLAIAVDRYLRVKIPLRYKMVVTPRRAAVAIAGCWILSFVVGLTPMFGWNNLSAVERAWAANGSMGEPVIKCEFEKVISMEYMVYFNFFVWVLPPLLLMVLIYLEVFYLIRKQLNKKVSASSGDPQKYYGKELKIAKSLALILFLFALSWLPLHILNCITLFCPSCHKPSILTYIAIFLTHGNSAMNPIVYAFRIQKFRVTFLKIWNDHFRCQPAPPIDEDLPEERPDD
The assay is described as follows: Reporter gene assay (CRE/SPAP) in CHO cells, agonist potency relative to NECA, adenosine A1 receptor. The conditions noted are these: ECR = equipotent concentration ratio relative to NECA = 1, inhibition of forskolin-stimulated SPAP production. On the set-up: key: equipotent concentration ratio, NECA = 1. The assay is classed as cell-based. As for the experimental part: (§1) Reporter Gene Experiments
(§2) Agonist activity was measured in Chinese hamster ovary (CHO) cells containing the CRE/SPAP/HYG (CRE=cyclic AMP response element; HYG=hygromycin resistance; SPAP=secreted placental alkaline phosphatase) reporter gene elements, which upon stimulation of cAMP levels produced SPAP. A cell line was used, which was stably transfected with either the human adenosine A1 receptor or the human adenosine A3 receptor in addition to the above elements. Cells were plated out in 96-well plates in culture medium and incubated at 37° C. for 1 hour. For measurement of potency, agonists were added to the appropriate wells at a concentration range of approximately 10^−10- 10^−5M. 15Min later, cAMP levels were stimulated by addition of a maximal concentration of forskolin. All cells were then incubated for a further 5 hours at 37° C., and cooled to room temperature, after which a substrate for the phosphatase (para-nitrophenol phosphate, pNPP), which is converted by SPAP to a coloured reagent) was then added and the 96-well -plates were read in a plate reader. From these readings, the concentration-dependence of the inhibition by the agonist for forskolin-stimulated SPAP production can be calculated. One of the agonists tested on each 96-well plate was the standard non-selective agonist, N-ethylcarboxamidoadenosine (NECA), and the potency of all test agonists is expressed relative to that of the NECA standard.
(§3) (ECR=equipotent concentration ratio relative to NECA=1)
(In a reporter assay the amount or activity of a reporter protein is the signal.)

The target in assay [2] is T2, human adenosine A3 receptor (Homo sapiens, UniProt P0DMS8).
T2 construct: expressed in transfected cells; host or cells: Chinese hamster ovary (CHO) cells with CRE/SPAP/HYG reporter elements
T2 sequence (P0DMS8 1-318): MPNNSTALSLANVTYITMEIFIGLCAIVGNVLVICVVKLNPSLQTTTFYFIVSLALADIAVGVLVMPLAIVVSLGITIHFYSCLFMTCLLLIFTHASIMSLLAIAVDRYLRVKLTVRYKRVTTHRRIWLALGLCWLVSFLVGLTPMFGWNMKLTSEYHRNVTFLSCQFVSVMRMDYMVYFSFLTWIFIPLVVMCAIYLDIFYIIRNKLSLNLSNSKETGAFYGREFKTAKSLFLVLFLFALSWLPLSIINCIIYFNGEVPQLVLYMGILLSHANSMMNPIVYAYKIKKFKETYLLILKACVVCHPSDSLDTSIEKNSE
Put plainly: Reporter gene assay (CRE/SPAP) in CHO cells, agonist potency relative to NECA, adenosine A3 receptor. The conditions noted are these: ECR = equipotent concentration ratio relative to NECA = 1, inhibition of forskolin-stimulated SPAP production. The assay is classed as cell-based. More on the design: key: equipotent concentration ratio, NECA = 1. As for the experimental part:
as §1, §2, §3

On to `CCOC(=O)N1CCC(Nc2ncnc3c2ncn3[C@@H]2O[C@H](c3nc(C)no3)[C@@H](O)[C@H]2O)CC1` [Example 37, ethyl 4-({9-[(2R,3R,4S,5S)-3,4-dihydroxy-5-(3-methyl-1,2,4-oxadiazol-5-yl)tetrahydrofuran-2-yl]-9H-purin-6-yl}amino)piperidine-1-carboxylate], for which the “Adenosine A1 receptor ECR*” value in assay [1] was 4.19. In addition, the “Adenosine A3 receptor ECR*” value in assay [2] stood at 507.

Regarding `CC(C)(C)c1noc([C@H]2O[C@@H](n3cnc4c(NCC5CC5)ncnc43)[C@H](O)[C@@H]2O)n1` [Example 44, (2S,3S,4 R,5R)-2-[3-(tert-butyl)-1,2,4-oxadiazol-5-yl]-5-{6-[(cyclopropylmethyl)amino]-9H-purin-9-yl}tetrahydrofuran-3,4-diol], the “Adenosine A1 receptor ECR*” value in assay [1] came to 7.68. Also, in assay [2], the “Adenosine A3 receptor ECR*” value came to 165.54.

Consider `CC(C)CNc1ncnc2c1ncn2[C@@H]1O[C@H](c2nc(C(C)(C)C)no2)[C@@H](O)[C@H]1O` [Example 45, (2S,3S,4R,5R)-2-[3-(tert-butyl)-1,2,4-oxadiazol-5-yl]-5-[6-(isobutylamino)-9H-purin-9-yl]tetrahydrofuran-3,4-diol], for which the “Adenosine A1 receptor ECR*” value in assay [1] came to 7.36. Moreover, the “Adenosine A3 receptor ECR*” value in assay [2] was 165.54.

In the case of `CC(C)c1noc([C@H]2O[C@@H](n3cnc4c(NC5CC5)ncnc43)[C@H](O)[C@@H]2O)n1` [Example 51, (2R,3R,4S,5S)-2-[6-(cyclopropylamino)-9H-purin-9-yl]-5-(3-isopropyl-1,2,4-oxadiazol-5-yl)tetrahydrofuran-3,4-diol], the “Adenosine A1 receptor ECR*” value in assay [1] is given as 7.56. Besides, the “Adenosine A3 receptor ECR*” value in assay [2] was 587.75.

As to `CNS(=O)(=O)CCNc1ncnc2c1ncn2[C@@H]1O[C@H](c2nc(C(C)C)no2)[C@@H](O)[C@H]1O` [Example 54, 2-({9-[(2R,3R,4S,5S)-3,4-dihydroxy-5-(3-isopropyl-1,2,4-oxadiazol-5-yl)tetrahydrofuran-2-yl]-9H-purin-6-yl}amino)-N-methylethanesulfonamide], the “Adenosine A1 receptor ECR*” value in assay [1] was found to be 20.78. Further, the “Adenosine A3 receptor ECR*” value in assay [2] came out at 715.31.

As to `CC(C)c1noc([C@H]2O[C@@H](n3cnc4c(Nc5ccc(F)c(F)c5)ncnc43)[C@H](O)[C@@H]2O)n1` [Example 56, (2R,3R,4S,5S)-2-[6-(3,4-difluoroanilino)-9H-purin-9-yl]-5-(3-isopropyl-1,2,4-oxadiazol-5-yl)tetrahydrofuran-3,4-diol], in assay [1], the “Adenosine A1 receptor ECR*” value is 15.96. Further, the “Adenosine A3 receptor ECR*” value in assay [2] amounted to 717.99.

On to `O[C@@H]1[C@H](O)[C@@H](c2nc(C3CC3)no2)O[C@H]1n1cnc2c(Nc3ccc(Cl)cc3F)ncnc21` [Example 62, (2R,3R,4S,5S)-2-[6-(4-chloro-2-fluoroanilino)-9H-purin-9-yl]-5-(3-cyclopropyl-1,2,4-oxadiazol-5-yl)tetrahydrofuran-3,4-diol], for which the “Adenosine A1 receptor ECR*” value in assay [1] was 29.47. In addition, the “Adenosine A3 receptor ECR*” value in assay [2] is recorded as 327.

For `CC(C)(C)c1nnc([C@H]2O[C@@H](n3cnc4c(Nc5ccc(Cl)cc5F)ncnc43)[C@H](O)[C@@H]2O)[nH]1` [Example 67, (2R,3S,4 R,5 R)-2-[5-(tert-butyl)-4H-1,2,4-triazol-3-yl]-5-[6-(4-chloro-2-fluoroanilino)-9H-purin-9-yl]tetrahydrofuran-3,4-diol], in assay [1], the “Adenosine A1 receptor ECR*” value was found to be 9.8. The “Adenosine A3 receptor ECR*” value in assay [2] is recorded as 827.66.

For the compound `CC(C)c1nnc([C@H]2O[C@@H](n3cnc4c(Nc5ccc(F)cc5Cl)ncnc43)[C@H](O)[C@@H]2O)[nH]1` [Example 68, (2R,3R,4S,5R)-2-[6-(2-chloro-4-fluoroanilino)-9H-purin-9-yl]-5-(5-isopropyl-4H-1,2,4-triazol-3-yl)tetrahydrofuran-3,4-diol], the “Adenosine A1 receptor ECR*” value in assay [1] is given as 4.09. In addition, the “Adenosine A3 receptor ECR*” value in assay [2] is listed as 417.37.

Turning to `O[C@@H]1[C@H](O)[C@@H](c2nnc(C3CC3)o2)O[C@H]1n1cnc2c(NC3CCOCC3)ncnc21` [Example 108, (2S,3S,4R,5R)-2-(5-cyclopropyl-1,3,4-oxadiazol-2-yl)-5-[6-(tetrahydro-2H-pyran-4-ylamino)-9H-purin-9-yl]tetrahydrofuran-3,4-diol], in assay [1], the “Adenosine A1 receptor ECR*” value amounted to 1.52. Besides, the “Adenosine A3 receptor ECR*” value in assay [2] came to 254.

With `CC(C)(C)c1nnc([C@H]2O[C@@H](n3cnc4c(Nc5ccc(F)cc5Cl)ncnc43)[C@H](O)[C@@H]2O)o1` [Example 116, (2S,3S,4R,5R)-2-[5-(tert-butyl)-1,3,4-oxadiazol-2-yl]-5-[6-(2-chloro-4-fluoroanilino)-9H-purin-9-yl]tetrahydrofuran-3,4-diol], in assay [1], the “Adenosine A1 receptor ECR*” value was 27.26. Moreover, in assay [2], the “Adenosine A3 receptor ECR*” value was found to be 955.

In the case of `CC(C)(C)c1cc([C@H]2O[C@@H](n3cnc4c(NC5CCS(=O)(=O)CC5)ncnc43)[C@H](O)[C@@H]2O)on1` [Example 119, (2S,3S,4 R,5R)-2-[3-(tert-butyl)isoxazol-5-yl]-5-{6-[(1,1-dioxidotetrahydro-2H-thiopyran-4-yl)amino]-9H-purin-9-yl}tetrahydrofuran-3,4-diol], in assay [1], the “Adenosine A1 receptor ECR*” value is on record as 2.83. Further, the “Adenosine A3 receptor ECR*” value in assay [2] turned out to be 154.

For `CCNS(=O)(=O)CCNc1ncnc2c1ncn2[C@@H]1O[C@H](c2nnc(C(C)(C)C)o2)[C@@H](O)[C@H]1O` [Example 123, 2-[(9-{(2R,3 R,4S,5S)-5-[5-(tert-butyl)-1,3,4-oxadiazol-2-yl]-3,4-dihydroxytetrahydrofuran-2-yl}-9H-purin-6-yl)amino]-N-ethylethanesulfonamide], the “Adenosine A1 receptor ECR*” value in assay [1] was found to be 4.19. Moreover, in assay [2], the “Adenosine A3 receptor ECR*” value is reported as 325.44.

As for `CNS(=O)(=O)CCNc1ncnc2c1ncn2[C@@H]1O[C@H](c2ncc(C)o2)[C@@H](O)[C@H]1O` [Example 127, 2-({9-[(2R,3R,4S,5S)-3,4-dihydroxy-5-(5-methyl-1,3-oxazol-2-yl)tetrahydrofuran-2-yl]-9H-purin-6-yl}amino)-N-methylethanesulfonamide], the “Adenosine A1 receptor ECR*” value in assay [1] worked out at 0.21. The “Adenosine A3 receptor ECR*” value in assay [2] came out at 21.62.

For `COCc1noc([C@H]2O[C@@H](n3cnc4c(NC5CCCC5)ncnc43)[C@H](O)[C@@H]2O)n1` [Example 129, (2R,3R,4S,5S)-2-[6-(cyclopentylamino)-9H-purin-9-yl]-5-[3-(methoxymethyl)-1,2,4-oxadiazol-5-yl]tetrahydrofuran-3,4-diol], in assay [1], the “Adenosine A1 receptor ECR*” value was 15.5. Further, the “Adenosine A3 receptor ECR*” value in assay [2] is more than 199.

Take `CCc1nnc([C@H]2O[C@@H](n3cnc4c(NC(C)C)ncnc43)[C@H](O)[C@@H]2O)o1` [Example 131, (2S,3S,4R,5R)-2-(5-ethyl-1,3,4-oxadiazol-2-yl)-5-[6-(isopropylamino)-9H-purin-9-yl]tetrahydrofuran-3,4-diol]: the “Adenosine A1 receptor ECR*” value in assay [1] came out at 0.15. For the same compound, the “Adenosine A3 receptor ECR*” value in assay [2] is given as 199.01.

For `Cc1nnc([C@H]2O[C@@H](n3cnc4c(N[C@H]5CCC[C@@H]5O)ncnc43)[C@H](O)[C@@H]2O)o1` [Example 132, (2R,3R,4S,5S)-2-(6-{[(1 S,2S)-2-hydroxycyclopentyl]amino}-9H-purin-9-yl)-5-(5-methyl-1,3,4-oxadiazol-2-yl)tetrahydrofuran-3,4-diol], the “Adenosine A1 receptor ECR*” value in assay [1] came to 0.53. Moreover, the “Adenosine A3 receptor ECR*” value in assay [2] is more than 22.4.

In the case of `CCC(CC)Nc1nc(Cl)nc2c1ncn2[C@@H]1O[C@H](c2nc(C3CC3)no2)[C@@H](O)[C@H]1O.O=CO.O=CO` [Example 133, (2R,3R,4S,5S)-2-{2-chloro-6-[(1-ethylpropyl)amino]-9H-purin-9-yl}-5-(3-cyclopropyl-1,2,4-oxadiazol-5-yl)tetrahydrofuran-3,4-diol formate (1:2)], in assay [1], the “Adenosine A1 receptor ECR*” value came to 25.47. Also, the “Adenosine A3 receptor ECR*” value in assay [2] is 466.92.

For the compound `CC(C)(C)c1nnc([C@H]2O[C@@H](n3cnc4c(NC5CCOCC5)ncnc43)[C@H](O)[C@@H]2O)[nH]1` [Example 139, (2R,3S,4R,5R)-2-[5-(tert-butyl)-4H-1,2,4-triazol-3-yl]-5-[6-(tetrahydro-2H-pyran-4-ylamino)-9H-purin-9-yl]tetrahydrofuran-3,4-diol], in assay [1], the “Adenosine A1 receptor ECR*” value was 10.64. Also, the “Adenosine A3 receptor ECR*” value in assay [2] turned out to be 228.
